Measured values published in patent US20200131669A1, “CYCLIC PEPTIDE COMPOUND HAVING HIGH MEMBRANE PERMEABILITY, AND LIBRARY CONTAINING SAME” (Chugai Seiyaku Kabushiki Kaisha, priority 2017, published 2020).
Starred links: 1 amine or outer side, 2 acyl side, 3 side chain; linkers in the order of their positions; H or OH if unused. Positions of bridges follow the written chain, without caps; N, C: chain ends. Non-standard residues stand in square brackets, D forms with d. Residues, ends and D or L forms follow the SMILES beside them. ξ: configuration not given here. *: point of attachment. Glu(NHSO2Me) = CS(=O)(=O)NC(=O)CC[C@H](N)C(=O)O; Phe(4-CF3) = N[C@@H](Cc1ccc(C(F)(F)F)cc1)C(=O)O; NMePhe(3-Cl) = CN[C@@H](Cc1cccc(Cl)c1)C(=O)O; NMehPhe = CN[C@@H](CCc1ccccc1)C(=O)O; X9 = O=C(CN(CCOc1ccccc1)[*:1])[*:2]; hhPhe = N[C@@H](CCCc1ccccc1)C(=O)O; X3 = O=C([C@H](CCCCO)N[*:1])[*:2]; Hyp = O=C(O)[C@@H]1C[C@@H](O)CN1; NMeF = CN[C@@H](Cc1ccccc1)C(=O)O; NMeGABA = CN(CCCC(=O)[*:2])[*:1]; NMeI = CC[C@H](C)[C@H](NC)C(=O)O; hPhe = N[C@@H](CCc1ccccc1)C(=O)O; NMeD = CN[C@@H](CC(=O)O)C(=O)O; NMeL = CN[C@@H](CC(C)C)C(=O)O; ξNMeF = CNC(Cc1ccccc1)C(=O)O; NMeV = CN[C@H](C(=O)O)C(C)C; NMeAbu = CC[C@H](NC)C(=O)O; NPentylGly = CCCCCNCC(=O)O; Pip = O=C(O)[C@@H]1CCCCN1; NMeA = CN[C@@H](C)C(=O)O; Piperidide = C1CCN(*)CC1; dNMeA = CN[C@H](C)C(=O)O; NBuGly = CCCCNCC(=O)O; Sar = CNCC(=O)O; tBu = CC(C)(C)*

Test: Caco-2 membrane permeability, improved method as used in the following Examples (96-well, 20 to 24 h preincubation)
Format: in vitro ADME
Conditions: Caco-2, Caco-2 (cm/sec)
Procedure, shortened: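 Caco-2 monolayers were grown three weeks and preincubated 20–24 h at 37 °C with compound in DMEM+FaSSIF (1% DMSO) apically. The assay then used compound in FaSSIF/HBSS (1% DMSO, pH 6.0) apically and HBSS with 4% BSA (pH 7.4) basally. Basal samples were taken at 180 min for LC/MS, and Papp (cm/sec) was calculated.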

`CC[C@H](C)[C@H]1C(=O)N[C@@H]([C@@H](C)O)C(=O)N(C)CC(=O)N(C)[C@@H](C)C(=O)N[C@H](C(=O)N2CCCCC2)CC(=O)N(C)[C@@H](C)C(=O)N[C@@H](Cc2ccc(C(F)(F)F)cc2)C(=O)N(C)[C@@H](CC(C)C)C(=O)N(C)[C@@H](Cc2ccccc2)C(=O)N[C@@H](C)C(=O)N(C)[C@@H](CC(C)C)C(=O)N1C` [pd131] ([NMeA][Phe(4-CF3)][NMeL][NMeF]A[NMeL][NMeI]T[Sar][NMeA]D-Piperidide; lactam N-11) showed a Papp A→B of 1.1 ×10⁻⁶ cm/s.

Same assay, conditions: human, Caco-2, Caco-2

`CC[C@H]1C(=O)N[C@@H]([C@@H](C)O)C(=O)N(C)CC(=O)N(C)[C@@H](Cc2ccccc2)C(=O)N(C)[C@@H](CC)C(=O)N[C@@H](COC(C)(C)C)C(=O)N(C)[C@@H](CC(C)C)C(=O)N[C@H](C(=O)N2CCCCC2)CC(=O)N(CCOc2ccccc2)CC(=O)N(C)[C@@H](CC(C)C)C(=O)N[C@@H](CC(C)C)C(=O)N1C` [pd421] ([X9][NMeL]L[NMeAbu]T[Sar][NMeF][NMeAbu]S(tBu)[NMeL]D-Piperidide; lactam N-11) and `CCCCCN1CC(=O)N(C)[C@@H](Cc2ccccc2)C(=O)N(C)[C@@H](CC(C)C)C(=O)N[C@@H](COC(C)(C)C)C(=O)N(C)[C@@H](CC(C)C)C(=O)N[C@H](C(=O)N2CCCCC2)CC(=O)N(C)CC(=O)N(C)[C@@H](Cc2ccccc2)C(=O)N[C@@H](C(C)C)C(=O)N(C)[C@@H](C)C(=O)N[C@@H]([C@@H](C)O)C1=O` [pd404] ([Sar][NMeF]V[NMeA]T[NPentylGly][NMeF][NMeL]S(tBu)[NMeL]D-Piperidide; lactam N-11) are the same in Papp A→B at 180 min: 1.3 ×10⁻⁶ cm/s for the first, 1.3 ×10⁻⁶ cm/s for the second.

`CC(C)C[C@@H]1NC(=O)[C@H](CC(C)C)N(C)C(=O)CN(C)C(=O)[C@H]([C@@H](C)O)NC(=O)[C@H](CC(C)C)N(C)C(=O)[C@H](C(C)C)NC(=O)[C@H](Cc2ccccc2)N(C)C(=O)[C@@H](C)NC(=O)C[C@@H](C(=O)N2CCCCC2)NC(=O)[C@H](CC(C)C)N(C)C(=O)[C@H](CCc2ccccc2)N(C)C1=O` [pd321] ([dA][NMeF]V[NMeL]T[Sar][NMeL]L[NMehPhe][NMeL]D-Piperidide; lactam N-11) and `CC(C)C[C@@H]1NC(=O)[C@H](Cc2ccccc2)N(C)C(=O)[C@@H](C(C)C)NC(=O)C[C@@H](C(=O)N2CCCCC2)NC(=O)[C@H](C(C)C)N(C)C(=O)[C@H](Cc2ccccc2)N(C)C(=O)[C@H](COC(C)(C)C)NC(=O)[C@H](CC(C)C)N(C)C(=O)CN(C)C(=O)[C@H](CCCCO)NC(=O)[C@H](CC(C)C)N(C)C1=O` [pd450] ([dV][NMeF]L[NMeL][X3][Sar][NMeL]S(tBu)[NMeF][NMeV]D-Piperidide; lactam N-11) are within 1.5-fold of each other in Papp A→B at 180 min: 1.3 ×10⁻⁶ cm/s for the first, 1.8 ×10⁻⁶ cm/s for the second.

Going from `CCO[C@@H]1C[C@H]2C(=O)N(C)[C@@H](CC(C)C)C(=O)N[C@@H]([C@@H](C)O)C(=O)N(C)[C@@H](CC(C)C)C(=O)N(C)[C@@H](C(C)C)C(=O)N[C@@H](Cc3ccc(C(F)(F)F)cc3)C(=O)N3CCCC[C@H]3C(=O)N[C@@H](CC(C)C)C(=O)N[C@H](C(=O)N3CCCCC3)CC(=O)N(C)[C@H](C)C(=O)N(C)[C@@H](CC(C)C)C(=O)N2C1` [pd377] ([dNMeA][NMeL][Hyp](Et)[NMeL]T[NMeL][NMeV][Phe(4-CF3)][Pip]LD-Piperidide; lactam N-11) to `CCCCN1CC(=O)N(C)[C@@H](C(C)C)C(=O)N[C@H](C(=O)N2CCCCC2)CC(=O)N(C)[C@@H](CC(C)C)C(=O)N[C@@H](CCC(=O)NS(C)(=O)=O)C(=O)N(C)[C@@H](CC(C)C)C(=O)N(C)[C@@H](Cc2ccccc2)C(=O)N[C@@H](CC(C)C)C(=O)N(C)[C@@H](Cc2ccccc2)C(=O)N(C)[C@@H](CC(C)C)C(=O)N[C@@H]([C@@H](C)O)C1=O` [pd62] ([NMeL][Glu(NHSO2Me)][NMeL][NMeF]L[NMeF][NMeL]T[NBuGly][NMeV]D-Piperidide; lactam N-11), the Papp A→B at 180 min falls from 1.4 ×10⁻⁶ cm/s to < 0.13 ×10⁻⁶ cm/s.

Same assay, conditions: human, Caco-2, Caco-2 (cm/sec)

Going from `CC(C)C[C@H]1C(=O)N(C)[C@@H](Cc2ccccc2)C(=O)N[C@@H](COC(C)(C)C)C(=O)N(C)[C@@H](C)C(=O)N[C@H](C(=O)N2CCCCC2)CC(=O)N(C)[C@@H](C)C(=O)N(C)[C@@H](Cc2ccccc2)C(=O)N[C@@H](CCc2ccccc2)C(=O)N(C)[C@@H](CC(C)C)C(=O)N[C@@H]([C@@H](C)O)C(=O)N(C)CC(=O)N1C` [pd183] ([NMeA][NMeF][hPhe][NMeL]T[Sar][NMeL][NMeF]S(tBu)[NMeA]D-Piperidide; lactam N-11) to `CC(C)C[C@H]1C(=O)N[C@@H](CCCc2ccccc2)C(=O)N(C)[C@@H](Cc2ccccc2)C(=O)N(C)[C@@H](C(C)C)C(=O)N[C@H](C(=O)N2CCCCC2)CC(=O)N[C@H](C)C(=O)N(C)C(Cc2ccccc2)C(=O)N[C@@H](C(C)C)C(=O)N(C)[C@@H](CC(C)C)C(=O)N[C@@H]([C@@H](C)O)C(=O)N(C)CC(=O)N1C` (stereo partly drawn) [pd193] ([dA][ξNMeF]V[NMeL]T[Sar][NMeL][hhPhe][NMeF][NMeV]D-Piperidide; lactam N-11), the Papp A→B at 180 min falls from 2.1 ×10⁻⁶ cm/s to 1 ×10⁻⁶ cm/s (2.1-fold).

First: CC(C)C[C@H]1C(=O)N[C@@H](COC(C)(C)C)C(=O)N(C)[C@@H](Cc2ccccc2)C(=O)N(C)[C@@H](CC(C)C)C(=O)N(C)[C@H](C(=O)N2CCCCC2)CC(=O)N[C@@H](C)C(=O)N(C)[C@@H](Cc2cccc(Cl)c2)C(=O)N[C@@H](C(C)C)C(=O)N(C)[C@@H](C(C)C)C(=O)N[C@@H]([C@@H](C)O)C(=O)N(C)CC(=O)N1C [pd160] (A[NMePhe(3-Cl)]V[NMeV]T[Sar][NMeL]S(tBu)[NMeF][NMeL][NMeD]-Piperidide; lactam N-11)
Second: CC[C@H](C)[C@@H]1NC(=O)[C@H](Cc2ccccc2)N(C)C(=O)CN(C)C(=O)C[C@@H](C(=O)N2CCCCC2)NC(=O)[C@H](C(C)C)N(C)C(=O)[C@H](COC(C)(C)C)NC(=O)[C@H](CC(C)C)N(C)C(=O)[C@H](Cc2cccc(Cl)c2)N(C)C(=O)CN(C)C(=O)[C@H]([C@@H](C)O)NC(=O)[C@H](CC(C)C)N(C)C1=O [pd158] ([Sar][NMeF]I[NMeL]T[Sar][NMePhe(3-Cl)][NMeL]S(tBu)[NMeV]D-Piperidide; lactam N-11)
The Papp A→B at 180 min of the first is 2.4-fold higher: 3.4 ×10⁻⁶ cm/s for the first, 1.4 ×10⁻⁶ cm/s for the second.

Compound `CC[C@H](C)[C@@H]1NC(=O)[C@H](CC(C)C)N(C)C(=O)CCCN(C)C(=O)C[C@@H](C(=O)N2CCCCC2)NC(=O)[C@H](CC(C)C)N(C)C(=O)[C@H](C)N(C)C(=O)[C@H](Cc2c[nH]c3ccccc23)NC(=O)[C@H](CC(C)C)N(C)C(=O)[C@H](COC(C)(C)C)NC(=O)[C@H](CC(C)C)N(C)C(=O)[C@H](CC(C)C)N(C)C1=O` [pd110] ([NMeGABA][NMeL]I[NMeL][NMeL]S(tBu)[NMeL]W[NMeA][NMeL]D-Piperidide; lactam N-11) has a Papp A→B at 180 min of 0.29 ×10⁻⁶ cm/s.
